The target in assay [1] is T1, 5-lipoxygenase (Rattus norvegicus, UniProt P12527).
T1 construct: The supernatant is employed as an enzyme solution of a 5-lipoxygenase; endogenous in cells; host or cells: RBL-1 rat basophilic leukemia cells, sonicated, 15,000 rpm supernatant (crude, not purified)
T1 sequence (P12527 1-673): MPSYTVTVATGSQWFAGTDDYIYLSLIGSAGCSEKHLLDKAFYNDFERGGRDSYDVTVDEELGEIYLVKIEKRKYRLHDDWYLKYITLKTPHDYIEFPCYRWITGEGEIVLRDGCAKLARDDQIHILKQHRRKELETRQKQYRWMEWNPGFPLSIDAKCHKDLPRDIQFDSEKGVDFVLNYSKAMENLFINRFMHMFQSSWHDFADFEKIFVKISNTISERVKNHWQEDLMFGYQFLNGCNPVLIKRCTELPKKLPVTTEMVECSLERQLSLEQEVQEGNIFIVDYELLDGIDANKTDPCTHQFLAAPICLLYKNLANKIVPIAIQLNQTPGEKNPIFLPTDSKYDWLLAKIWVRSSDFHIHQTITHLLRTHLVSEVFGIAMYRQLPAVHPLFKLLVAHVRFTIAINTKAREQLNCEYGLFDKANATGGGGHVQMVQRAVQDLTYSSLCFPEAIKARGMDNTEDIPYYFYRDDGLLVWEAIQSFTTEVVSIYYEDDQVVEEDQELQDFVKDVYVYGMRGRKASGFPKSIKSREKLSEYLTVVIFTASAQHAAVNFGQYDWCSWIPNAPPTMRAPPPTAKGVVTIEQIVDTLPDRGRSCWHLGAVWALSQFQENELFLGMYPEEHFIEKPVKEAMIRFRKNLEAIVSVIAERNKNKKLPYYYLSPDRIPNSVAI
As to the kind of experiment: 5-Lipoxygenase-inhibiting activity (Test Example 2, radiolabeled arachidonic acid, TLC of 5-HETE). The format is biochemical. Particulars: RBL-1 cell supernatant, pH 7.4, 37° C., 15 min, radio-TLC of 5-HETE, read-out: 50% Inhibitory concentration. The protocol: A suspension of rat-origin basophilic leukemia cell strain RBL-1 in an Eagle basal medium (manufactured by Gbco Laboratories) containing 10 % FCS is cultivated in a 5% CO2 incubator at 37° C. The culture is then centrifuged at 4° C. to collect cells. The cells are re-suspended in a phosphate buffer solution at pH 7.4 to a cell density of 1.0 -3.0×10^7 cells/ml. The suspended cells are treated by an ultrasonic cell blender and then centrifuged at 15,000 rpm at 4° C. for 30 min. The supernant is employed as an enzyme solution of a 5-lipoxygenase. In test tubes are placed 20 μl of radiolabeled arachidonic acid (10 μl Ci/ml) and an isoprenoid derivative of the invention to be tested. To each of the test tubes are added 0.40 ml of phosphate buffer, 0.10 ml of the enzyme solution as prepared above and […] of a 100 mM CaCl2 (calcium chloride). The mixture is allowed to react at 37° C. for 15 min. To the reaction mixture, after ice-cooling, is added one drop of 1N HCl (hydrochloric acid), and the resulting mass is extracted with 2 ml of ethyl acetate. The extract is concentrated, and the concentrate is spotted and developed on a silica gel thin layer plate (Merck 60F254). Measurement of the inhibitory activity is accomplished by collecting the portion corresponding to 5-HETE (5-(s)-hydroxy-6,8,11,14-eicosatetraenoic acid), a 5-lipoxygenase product detected by a radio-thin layer chromatogram scanner (Dunnschicht-Scanner II LB2723, manufactured by Berthold) and measuring radioactivity by a liquid scintillation counter. The 5-lipoxygenase-inhibiting activity is determined by decrease in the production of said 5-lipoxygenase product.
(§1) 50% inhibitory concentration as referred to in Tables 1 and 2 means concentration of an isoprenoid derivative required for controlling the production of […] as described above to 50% by introducing said isoprenoid derivative when production of 5-HETE without isoprenoid derivative of the invention is taken as 100%.

Assay [2] concerns the target T1, 5-lipoxygenase. The assay is described as follows: 5-Lipoxygenase-inhibiting activity (Test Example 1, HPLC of 5-HETE). The format is biochemical. As to conditions: RBL-1 cell supernatant; 50 μg arachidonic acid; pH 7.4; 37° C., 15 min; HPLC peak of 5-HETE; read-out: 50% Inhibitory concentration. The protocol:
A suspension of rat-origin basophilic leukemia cell strain RBL-1 in an Eagle basal medium (manufactured by Gibco Laboratories) containing 10% FCS is cultivated in an 5% CO2 incubator at 37° C. The culture is then centrifuged at 4° C. to collect cells. The cells are re-suspended in a phosphate buffer solution at pH 7.4 to a cell density of 1.0-3.0×10^7 cells/ml. The suspended cells are treated by an ultrasonic cell blender and then centrifuged at 15,000 rpm at 4° C. for 30 min. The supernatant is employed as an enzyme solution of a 5-lipoxygenase. In test tubes are placed 50 μg of arachdonic acid and an isoprenoid derivative of the invention to be tested. To each of the test tubes are added 0.30 ml of phosphate buffer, 0.20 ml of the enzyme solution as prepared above and 5 μl of a 100 mM CaCl2 (calcium chloride) solution. The mixture is allowed to react at 37° C. for 15 min. To the reaction mixture, after ice-cooling, is added one drop of 1N HCl (hydrochloric acid), and the resulting mass is extracted with 2 ml of ethyl acetate. The extract is concentrated to dryness followed by addition of 100 μl of methanol for use as a test specimen.
Said specimen is injected into octadecylsilane (ODS) reverse phase high performance liquid chromatography (HPLC), eluted with methanol - acetonitrile - water - acetic acid (15 : 45 : 35 : 0.01). Peak for 5-HETE (5-(s)-hydroxy-6,8,11,14-eicosatetraenoic acid), a 5-lipoxygenase product detected in approximately 25 min. is measured. The 5-lipoxygenase-inhibiting activity is determined by decrease in the peak for said 5-lipoxygenase product.
as §1

In assay [3] the test system is stomach lesions (ulcer index) in male Wistar rats. The assay is described as follows: Anti-ulcer activity (ethanol-hydrochloric acid gastric lesions). Particulars: 100 mg/kg, oral, 1 h before ethanol-hydrochloric acid; male Wistar rats fasted 24 h. The assay is classed as in vivo, rat (male Wistar). As for the experimental part:
To male Wistar rats (weighing 150-200 g) fasted for 24 hours was administered orally an isoprenoid derivative of the invention. One hour later, ethanol-hydrochloric acid (containing 150 mM hydrochloric acid in 60% ethanol) was orally given in a volume of 0.5 ml/100 g bodyweight.
One hour later, the animals were sacrificed with ether. The stomach was excised and, after formalin treatment, measured for the length (mm) of lesions developed in glandular portions of the stomach. Total length of the lesions per animal was taken as ulcer index.
Percent inhibition of ulceration as referred to in the table is a value indicating the ulcer index for the rat without an isoprenoid derivative of the invention orally given minus the ulcer index for the orally administered rat divided by the ulcer index for the orally non-administered rat multiplied by 100.

Take `COc1cc(/C=C/C(=O)OCC=C(C)C)ccc1O` [Example 5, prenyl 4-hydroxy-3-methoxycinnamate]: the IC50 in assay [1] came to 3000 nM. The same measure, in the same setting: with `COc1cc(/C=C/C(=O)NC/C=C(\C)CCC=C(C)C)ccc1O` [Example 14, 4-hydroxy-3-methoxycinnamic acid geranylamide] the figure was 920 nM. The same measure, in the same setting: with `COc1cc(/C=C/C=C/C(=O)NCC=C(C)C)ccc1O` [Example 11, 5-(4'-hydroxy-3'methoxyphenyl)pentadienoic acid prenylamide] the figure was 650 nM; with `COc1cc(/C=C/C=C/C(=O)NC/C=C(\C)CCC=C(C)C)ccc1O` [Example 12, 5-(4'-hydroxy-3-methoxyphenyl)pentadienoic acid geranylamide], 83 nM; with `COc1cc(/C=C/C=C/C(=O)NC/C=C(\C)CC/C=C(\C)CCC=C(C)C)ccc1O` [Example 13, 5-(4'-hydroxy3'-methoxyphenyl)pentadienoic acid (E,E)-farnesylamide], 310 nM. Take `COc1cc(/C=C/C=C/C(=O)CCC=C(C)C)ccc1O` [Example 1, 1-(4'-hydroxy-3'-methoxyphenyl)-9-methyl-1,3,8-decatrien-5-one]: in assay [2], the IC50 is 500 nM. Besides, the “Percent inhibition of ulceration” value in assay [3] turned out to be 79.3%. As for `COc1cc(/C=C/C=C/C(=O)OCC=C(C)C)ccc1O` [Example 6, prenyl 5-(3-methoxy-4-hydroxyphenyl)-2,4-pentadienoate], the IC50 in assay [1] was 400 nM. On the same count and under the same terms, with `CC(C)=CCC/C(C)=C/COC(=O)/C=C/C=C/c1ccc(O)c(O)c1` [Example 9, geranyl 5-(3,4-dihydroxyphenyl)-2,4-pentadienoate] the figure was 260 nM.

For the compound `CC(C)=CCCC(=O)/C=C/c1ccc(O)c(O)c1` [Example 4, 1-(3',4'-dihydroxyphenyl)-7-methyl-1,6-octadien-3-one], in assay [2], the IC50 stood at 80 nM. As to `COc1cc(/C=C/C=C/C(=O)CC/C=C(\C)CC/C=C(\C)CCC=C(C)C)ccc1O` [Example 3, 1-(4'-hydroxy-3'-methoxyphenyl)-9,13,17-trimethyl-1,3,8,12,16-octadecapentaen-5-one], the IC50 in assay [2] was found to be 800 nM. The “Percent inhibition of ulceration” value in assay [3] is on record as 85.0%. As for `COc1cc(/C=C/C=C/C(=O)CC/C=C(\C)CCC=C(C)C)ccc1O` [Example 2, 9,13-dimethyl-1-(4'-hydroxy-3'-methoxyphenyl)-1,3,8,12-tetradecatetraen-5-one], the IC50 in assay [2] amounted to 380 nM. The “Percent inhibition of ulceration” value in assay [3] is given as 94.6%.

In the case of `CC(C)=CCC/C(C)=C/CNC(=O)/C=C/C=C/c1ccc(O)c(O)c1` [Example 15, 5-(3',4'-dihydroxyphenyl)pentadienoic acid geranylamide], the IC50 in assay [1] was found to be 11 nM. On to `CC(C)=CCOC(=O)/C=C/C=C/c1ccc(O)c(O)c1` [Example 7, prenyl 5-(3,4-dihydroxyphenyl)-2,4-pentadienoate], for which the IC50 in assay [1] was found to be 26 nM. Same read-out and setting: with `COc1cc(/C=C/C=C/C(=O)OC/C=C(\C)CCC=C(C)C)ccc1O` [Example 8, geranyl 5-(4-hydroxy-3-methoxyphenyl)-2,4-pentadienoate] the figure was 1200 nM.
